From patent US5106853A, “Oxadiazole and its salts, their use in treating dementia” (Merck Sharp & Dohme, Ltd., priority 1989, dated 1992) come the findings set out here.

Usually EC50 stands for the concentration giving half of the maximal effect. A lower EC50 goes with an effect from little substance.

One test concerns the target T1, M-2 receptor (Cavia porcellus, UniProt H0VRN8).
T1 construct: from tissue; host or cells: guinea-pig atrium
T1 sequence (H0VRN8 1-466): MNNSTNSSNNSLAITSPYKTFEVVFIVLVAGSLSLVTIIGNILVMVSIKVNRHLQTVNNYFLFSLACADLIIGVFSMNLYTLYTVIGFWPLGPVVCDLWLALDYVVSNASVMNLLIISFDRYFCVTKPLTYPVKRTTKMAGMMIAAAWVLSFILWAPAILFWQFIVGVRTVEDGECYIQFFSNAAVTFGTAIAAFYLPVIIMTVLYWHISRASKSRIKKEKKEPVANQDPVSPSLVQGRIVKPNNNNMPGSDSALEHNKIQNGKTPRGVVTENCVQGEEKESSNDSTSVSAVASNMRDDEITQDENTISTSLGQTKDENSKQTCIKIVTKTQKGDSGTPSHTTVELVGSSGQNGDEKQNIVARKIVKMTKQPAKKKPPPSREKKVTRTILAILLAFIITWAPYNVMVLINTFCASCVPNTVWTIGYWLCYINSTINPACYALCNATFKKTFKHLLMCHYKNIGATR
Put plainly: Functional selectivity, guinea-pig atrium (methods of J. Med. Chem. (1987), 30, 969-975). The class given is cell-based. As to the method: (§1) B. By the methods disclosed in J. Med. Chem. (1987), 30, 969-975 was determined the functional selectivity of compound (I): […]

Another test has as its target T2, M-3 receptor (Cavia porcellus, UniProt H0W1Z3).
T2 construct: from tissue; host or cells: guinea-pig myenteric plexus/longitudinal muscle strip
The test is described as follows: Functional selectivity, guinea-pig myenteric plexus/longitudinal muscle strip (methods of J. Med. Chem. (1987), 30, 969-975). The class given is cell-based. How it is done: as §1

In test [1] the target is muscarinic acetylcholine receptors. The test is described as follows: NMS/OXO-M displacement: [3H]NMS and [3H]OXO-M Kapp (method of Br. J. Pharmacol. (1988), 93, 437-445). The note with it: for Kd: Kapp = corrected dissociation constant allowing for ligand occupancy. The class given is binding. As to the method:
A. By the method disclosed in Br. J. Pharmacol. (1988), 93, 437-445 were determined the NMS/OXO-M data for the compound (I): [^3 H]NMS Kapp =0.025 μM; [^3 H]OXO-M Kapp =0.0017 μM; ratio NMS/OXO-M=15; (Kapp =corrected dissociation constant allowing for ligand occupancy).

For the next test, the target named is T3, M-1 receptor (Rattus norvegicus, UniProt P08482).
T3 construct: from tissue
T3 sequence (P08482 1-460): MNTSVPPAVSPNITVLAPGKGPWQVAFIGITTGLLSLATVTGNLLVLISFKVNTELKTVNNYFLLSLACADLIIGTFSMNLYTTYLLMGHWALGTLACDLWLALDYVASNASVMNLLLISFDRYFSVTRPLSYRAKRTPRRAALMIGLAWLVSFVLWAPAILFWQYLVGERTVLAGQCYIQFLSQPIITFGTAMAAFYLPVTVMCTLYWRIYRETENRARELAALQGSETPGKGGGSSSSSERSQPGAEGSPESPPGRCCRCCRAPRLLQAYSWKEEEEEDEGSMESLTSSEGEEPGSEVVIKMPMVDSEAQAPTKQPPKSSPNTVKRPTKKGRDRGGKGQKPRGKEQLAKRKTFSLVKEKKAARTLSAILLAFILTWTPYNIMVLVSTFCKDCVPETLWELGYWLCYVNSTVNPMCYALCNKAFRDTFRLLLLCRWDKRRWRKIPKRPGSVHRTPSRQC
The test is described as follows: Functional selectivity, rat superior cervical ganglion (methods of J. Med. Chem. (1987), 30, 969-975). The class given is cell-based. The following applies: mean ± S.D. (n = 5). How it is done: as §1

The mark [2] stands for this setting: relative maximum, read-out: Rel. Max.

The structures appear in SMILES notation. Like-named read-outs stand apart in the source and are kept apart here.

T2 sequence (H0W1Z3 1-590): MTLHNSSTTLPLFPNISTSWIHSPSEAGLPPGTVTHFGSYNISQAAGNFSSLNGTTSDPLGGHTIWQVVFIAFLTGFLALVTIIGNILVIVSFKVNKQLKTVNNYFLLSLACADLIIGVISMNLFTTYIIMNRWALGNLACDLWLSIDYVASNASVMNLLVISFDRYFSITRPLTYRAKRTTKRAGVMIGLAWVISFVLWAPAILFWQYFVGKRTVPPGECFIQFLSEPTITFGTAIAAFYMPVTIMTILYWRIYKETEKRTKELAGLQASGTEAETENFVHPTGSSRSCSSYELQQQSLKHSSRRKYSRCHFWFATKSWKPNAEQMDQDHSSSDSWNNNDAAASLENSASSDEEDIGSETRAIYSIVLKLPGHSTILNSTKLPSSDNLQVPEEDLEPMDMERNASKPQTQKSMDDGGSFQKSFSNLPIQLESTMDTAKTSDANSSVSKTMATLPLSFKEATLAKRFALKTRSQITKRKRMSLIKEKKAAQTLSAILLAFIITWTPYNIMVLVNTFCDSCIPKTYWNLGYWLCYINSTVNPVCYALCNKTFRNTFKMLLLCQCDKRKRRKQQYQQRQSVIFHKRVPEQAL

For `C1CC1c1noc([C@H]2CN3CC[C@H]2C3)n1` [compound (I), (3R, 4R)-3-(3-cyclopropyl-1,2,4-oxadiazol-5-yl)-1-azabicyclo[2.2.1]heptane], the Kb is 10 nM on M-2 receptor (95% confidence limits 7.80-8.20, n = 10, slope of Arunlakshana-Schild plot not significantly different from unity, read-out: pA2 (converted)) and 7.08 nM at M-3 receptor (95% confidence limits 7.90-8.40, n = 12, slope of Arunlakshana-Schild plot not significantly different from unity, read-out: pA2 (converted)). In addition, the Emax is 0% at M-2 receptor (setting [2]), 0% on M-3 receptor (setting [2]) and 55 ± 10% at M-1 receptor (setting [2]). The Kd in test [1] (radioligand [3H]NMS, read-out: [3H]NMS Kapp) was 25 nM; in test [1] (radioligand [3H]OXO-M, read-out: [3H]OXO-M Kapp) it was 1.7 nM. For the same molecule, the “ratio NMS/OXO-M” value in test [1] (ratio of Kapp values) is given as 15. Besides, the EC50 at M-1 receptor was 63.1 nM.
